The text below walks through data of patent US12691234B2, “Methods employing gaseous nitric oxide for inhibiting tumor growth” (Beyond Air, Inc., priority 2019, dated 2026).

The test system of one assay is CT-26 tumor. As to the kind of experiment: Local gNO administration to CT26 tumor-bearing mice, primary tumor. The class given is in vivo, Balb/c mouse. The method, then:
Test article treatment: Mice were first anesthetized by an intraperitoneal (i.p) injection of 100 mg/kg ketamine and 20 mg/kg xylazine hydrochloride solution. After 10 minutes, tumor-bearing mice were treated with the indicated dose of gNO.
In all protocols, the gas was delivered from NO in N2 cylinders. The outlet pressure was set to 2-3.5 bar using a pressure regulator that was connected directly to the cylinder.
In protocols that involve administration by needle injection, a silicone hose was connected directly to the pressure regulator on one end and to a manual or digital MFC on the other end. The flow was adjusted to 0.05 LPM-0.25 LPM. An additional silicone hose was connected to the flow controller as well as to a 23 G hypodermic needle. The needle was inserted horizontally into the center of each tumor.
Mice were inoculated subcutaneously with 5×10^5 CT-26 cells suspended in 100 μL Hank's Balanced Salt Solution (HBSS) into the low lateral side of the back. Local tumor growth was determined by measuring two mutually orthogonal tumor diameters with a caliper. The volume of the tumor was calculated using the formula: Vol=D1×D2×D2/2, where D1, D2 are two mutually orthogonal tumor diameters.
Air-1 is a female Balb/c mouse that was treated twice. On day 0 the tumor volume was 64.85 mm^3. […] This was followed by air administration for 4 minutes administered to the outer layer of the tumorusing a cap, such as shown in FIG. 11C.
NO-1 is a female Balb/c mouse and was treated once. […] Then, the skin was removed from the tumor, and the tumor was re-exposed to gNO via a perforated flask filled with gNO using the same parameters.
NO-2 is a male Balb/c mouse and was treated 3 times. On day 0 the tumor volume was 38.51 mm^3. Day 0—gNO at 50,000 ppm was administered for 3.8 minutes at a flow rate of 0.9 using a cap. Day 5: gNO at 10,000 ppm was administered for 30 minutes using a cap. Then, gNO was delivered intra-tumorally by a 23 G needle such as shown in FIG. 11B at 0.3 LPM for another 10 minutes, using an intra-tumoral channel. The tip of the needle was directed at the outside area. Day 11: gNO at 10,000 ppm was delivered to the tumor for 5 minutes and at a flow rate of 0.3 LPM, using a 23 G needle and an intra-tumoral channel.
In an additional set of experiments, aluminum disposable gas cylinders were used. A flow meter was connected directly to the cylinder, to which a gas delivery tubing was connected. The tumor was inserted into a small flask trough a 1 cm hole and a plastic holder. A small hole at the bottom of the flask enabled to lower the pressure inside the flask. […]

The test system of another assay is 4T1 cells. As to the kind of experiment: Third inoculation with 4T1 breast cancer cells in CT26 gNO-immunized mouse. The class given is in vivo, Balb/c mouse. The following applies: mouse treated with 25,000 ppm NO twice 15 minutes; 4T1 inoculated 30 days post second inoculation. Here is the method: Balb/c mouse was inoculated with 500,000 CT26 cells to the right flank. CT26 tumor was treated with 25,000 ppm NO for 15 minutes at a flow rate of 0.25 LPM. Seven days post gas treatment, this mouse was treated once again using the same protocol. Twelve days post the first NO treatment, this mouse was re-inoculated with 500,000 CT26 cells to the left flank. A third inoculation of cancer cells was performed 30 days post the second cell inoculation, using mouse breast cancer cells, was performed as well and the growth of a third inoculation of breast cancer cells, 4T1 cells. Forty-four days post challenge assay start (second inoculation), this mouse was sacrificed, and his spleen was harvested and preserved in RPMI-based media at 4° c. until processing of it. The spleen was processed into a sterile 35 mm culture dish containing 5 ml of RPMI-based media. Any extra connective tissues or fat was trimmed from the spleen. The flat end of a plunger was used to mince the spleen by crushing the spleen to release the splenocytes. A 70 μm strainer was primed by passing 1 ml of PBS through it and placed on a sterile 50 mL conical tube. The pellet was collected and transferred through the strainer via a 5 mL serological pipette. The strainer was washed with 3 mL of RPMI-based media. Tube will be centrifuged at 300×g for 10 minutes. […]

A further assay deals with CT26 challenge tumor. As to the kind of experiment: Challenge assay in CT26 tumor-bearing mice. The class given is in vivo, mouse. The method, then:
Challenge tumor inoculation: Up to 21 days after gas treatment was applied to the primary tumor, the appropriate cancer cell suspensions were prepared as described herein and inoculation of cells was repeated on the contralateral flank of the mice. Administration was performed as soon as possible following cell suspension preparation and after manual shaking prior to withdrawal of the cell suspension.
The percentage of challenge tumor take was monitored 2-3 times a week by taking a look at the inoculated site and touching this area to look for small tumors that are not yet visible. Naïve mice inoculated with tumor cells for the first time served as an internal control.
Mixing of cells was performed immediately before injection to minimize leukocyte interactions within the syringe. Mice were observed 2-3 times a week and tumor development was determined by caliper measurements of tumor dimensions as described herein. Splenocytes were extracted from a CT26 tumor-bearing mouse, which was previously treated with 25,000 ppm NO for two 15-minute courses. This mouse was re-inoculated with CT26 cancer cells 12 days post treatment. […] Tumor take of visible outgrowths was monitored 2 to 3 times per week by taking a look at the inoculated site and touching this area to look for small tumors that are not yet visible Naïve mice inoculated s.c. with 500,000 CT26 served as the control group. […]

As to `[N]=O` [gNO, nitric oxide], the “tumor in photographs after treatment” value in the assay with CT-26 tumor (10,000 ppm gNO in flask, 0.9 LPM, 20 minutes, up to 14 days post treatment) is reported as “the tumor was destructed”. The molecule also showed a mice cured in the assay on CT-26 tumor (25,000 ppm gNO intra-tumoral, 15 minutes, 0.25 LPM, repeated a week later, 44 days post the first treatment) of 50%. The “tumor 9 days after treatment” value in the assay with CT-26 tumor (200,000 ppm gNO for 2 seconds, 0.01 LPM) is on record as “the tumor disappeared”. The “size of air-treated tumor relative to gNO-treated tumors” value in the assay with CT-26 tumor (mice NO-1 and NO-2, 10,000-50,000 ppm gNO, 12 days post treatment 1) is “more than times bigger”. For the same molecule, the “growth of a third inoculation of breast cancer cells” value in the assay with 4T1 cells is listed as “inhibited”. Further, the “rejection of secondary CT26 tumor cell inoculation” value with CT26 challenge tumor (25,000 ppm 30 minutes, 50,000 ppm 10 minutes or 200,000 ppm 2-35 seconds, end of follow-up) is reported as “all NO-treated mice rejected a secondary CT26 tumor cell inoculation”. Moreover, the “tumor development after CT26 re-inoculation” value in the assay with CT26 challenge tumor (25,000 ppm NO two 15-minute courses, re-inoculated 12 days post treatment, 44 days after challenge) is given as “no signs of tumor development were detected”.
